Measured values: PMC11737842, “Development of a high‐throughput dual‐stream liquid chromatography–tandem mass spectrometry method to screen for inhibitors of glutamate carboxypeptidase II” (Rapid Communications in Mass Spectrometry, 2024)
Residues, ends and D or L forms follow the SMILES beside them.

Assays:
[1] = target: T1, Glutamate carboxypeptidase II (GCPII) (Homo sapiens, UniProt Q04609); assay: LC/MS/MS measurement of Glu from GCPII cleavage of ([…]5 […]-labelled) NAAG; type: biochemical
T1 construct: gene FOLH1
T1 sequence (Q04609 whole entry): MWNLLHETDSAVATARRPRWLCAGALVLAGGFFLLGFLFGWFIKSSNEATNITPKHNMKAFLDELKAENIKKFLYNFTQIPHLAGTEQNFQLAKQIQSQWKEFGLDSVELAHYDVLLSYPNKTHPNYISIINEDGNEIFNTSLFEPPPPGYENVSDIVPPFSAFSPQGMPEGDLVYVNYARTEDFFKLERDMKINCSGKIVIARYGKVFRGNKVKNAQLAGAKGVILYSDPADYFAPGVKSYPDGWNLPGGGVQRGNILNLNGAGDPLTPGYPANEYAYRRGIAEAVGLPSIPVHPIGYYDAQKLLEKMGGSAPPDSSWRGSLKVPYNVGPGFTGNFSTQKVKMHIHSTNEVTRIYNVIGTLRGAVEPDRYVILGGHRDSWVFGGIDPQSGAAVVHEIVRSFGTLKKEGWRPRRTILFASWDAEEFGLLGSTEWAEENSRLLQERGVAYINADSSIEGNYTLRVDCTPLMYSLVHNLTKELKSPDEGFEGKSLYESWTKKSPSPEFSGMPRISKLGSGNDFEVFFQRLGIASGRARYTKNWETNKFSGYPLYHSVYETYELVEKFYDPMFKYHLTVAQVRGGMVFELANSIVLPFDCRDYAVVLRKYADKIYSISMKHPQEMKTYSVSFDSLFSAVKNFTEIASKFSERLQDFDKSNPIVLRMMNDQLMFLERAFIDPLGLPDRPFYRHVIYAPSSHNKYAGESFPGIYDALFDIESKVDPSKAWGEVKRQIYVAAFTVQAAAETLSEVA

[2] = target: T1, Glutamate carboxypeptidase II (GCPII); assay: LC/MS/MS enzymatic assay of Glu released from NAAG by purchased GCPII, 11-point IC50; type: biochemical

| SMILES | LC/MS/MS measurement of Glu from GCPII cleavage of (13C5 15N-labelled) NAAG [1] | IC50 [2] [nM] |
| --- | --- | --- |
| CC(=O)N[C@@H](CC(=O)O)C(=O)N[C@@H](CCC(=O)O)C(=O)O [NAAG] (Ac-Asp-Glu-OH) | LC/MS/MS) method to directly measure Glu resulting from in vitro GCPII cleavage of NAAG | – |
| N[C@@H](Cn1oc(=O)[nH]c1=O)C(=O)O [quisqualic acid] | – | 1590 |
